Consider two molecules from paper PMC12503906, “Novel Pyrazolo [1,5‐a]−1,3,5‐Triazine Derivatives as CDK7 Inhibitors: Synthesis and Biological Insights in Pancreatic Ductal Adenocarcinoma Models” (Chemmedchem, 2025).

Holding throughout (format): cell-based
One assay relates to PDAC3. In words: Annexin V apoptosis assay, PDAC3. The following applies: 1 × IC50. Here is the method: (§1) In order to investigate the apoptotic properties of the compounds 1b and 1g, the Annexin V apoptosis assay was performed. Annexins are calcium‐dependent phospholipid binding proteins, which are able to bind to phosphatidylserine (PS). The externalization of PS residues on the outer membrane of apoptotic cells can be detected by Annexin V.
(§2) For this assay, cells were seeded in a 96‐well plate at a concentration of 13.5 × 10^3 and 4.5 × 10^3 /well respectively for the 24 and 72 h experiments. The next day cells were treated with compounds 1b and 1g at 1 × IC50 and 4 × IC50 concentrations. The apoptosis assay was performed 24 and 72 h post‐treatment following the BD Pharmingen FITC Annexin V Apoptosis Detection Kit I (BD Biosciences, 556,547). The supernatant was aspirated, and cells were washed with phosphate‐buffered saline (PBS). Cells were consequently treated with binding buffer BBA + Annexin V (1:100) and were incubated in the dark at RT for 10 min. The supernatant was removed, and the cells were washed with BBA (1:10). Cells were then incubated with BBA + PI (1:100) and were immediately read with the spectrophotometer at ex. 485/ em. 535. Two different programs were used to read the Annexin V and the PI absorbance. Lastly, 100 µL of PBS were added to each well before being fixed with TCA. This was followed by the SRB assay to standardize fluorescence data according to cell count. Data were exported into GraphPad Prism 10 for statistical analysis.

The subject of another assay is PATU‐T. Description: Annexin V apoptosis assay, PATU‐T. The following applies: 1 × IC50. The procedure:
as §1, §2

The subject of another assay is Bax/Bcl‐2. In words: Bax/Bcl‐2 ratio by RT‐PCR, PATU‐T cells. The procedure:
In order to understand modulation of downstream genes of CDK7, gene expression analysis by qPCR was performed in all cell lines. Cells (5 × 10^5/well) were seeded in 6‐well plates and treated with the compounds 1b and 1g at 1× and 4 × IC50 concentrations. Cell lysates were collected 24 h post‐treatment using 300 µL of TRIzol Reagent (Ambion, 15,596,018) per well. Total RNA was extracted by mixing 60 µL of chloroform to the samples, incubating for 3 min and centrifuging at 12,000 rcf for 15 min at 4 °C. The upper aqueous phase containing RNA was transferred to a new Eppendorf and mixed with 120 µL of cold isopropanol in order to allow the RNA to precipitate. Samples were incubated at RT for 10 min and were then centrifuged at 12,000 rcf for 10 min at 4 °C. The isopropanol was carefully removed, and the pellet was washed twice with 70% ETOH. Pellets were left to air dry and consequently resuspended in RNAse‐free water. Samples were left agitation on a thermomixer at 55 °C for 10 min at 600 rpm and were then quantified through NanoDrop technology (Thermo Scientific, NanoDrop One/One^c). RNA samples were stored at −80 °C.
In order to perform cDNA synthesis, the First Strand cDNA synthesis kit (Thermo Scientific, K1612) was used. The previously isolated RNA was mixed with 1 µL of oligo dT18 primer into a pcr tube. Nuclease free water was added to reach a final volume of 11 µL. Samples were centrifuged at 1200 rcf for 5 min and were then placed on a thermomixer at 65 °C for a few minutes. A master mix was prepared, including 4 µL of 5× reaction buffer, 1 µL of ribolock RNAse inhibitor, 2 µL of dntp mix (10 mM), and 2 µL of M‐mulv reverse transcriptase for each sample. In total 9 µL of master mix were added to each vial. Samples were centrifuged again and were finally synthesized, following a cycle of 60 min at 37 °C and 5 min at 70 °C. cDNA was now finally synthesized and could be stored at −20 °C. RT‐PCRs reactions were performed using SYBR Green (Bio‐Rad, 1,725,271) (5 µL per sample), primer mix (0.3 µM) (2 µL per sample), and cDNA (10 ng µL^− ^1) (3 µL per sample). […] RT‐PCR assays were carried out in a GeneAmp 5700 Sequence Detection System programmed to hold at 50 °C for 30 min, to hold at 95 °C for 10 min, and to complete 45 cycles of 95 °C for […] and 50 °C for 1 min. The genes that were investigated are shown in Table 5 , with their respective forward and reverse primer sequences.

Regarding `Nc1ncnc2cc(-c3c[nH]c4ccc(Br)cc34)nn12` [Compound 1b, 7‐(5‐Bromo‐1H‐indol‐3‐yl)pyrazolo[1,5‐a][1,3,5]triazin‐4‐amine], the apoptotic index result in the assay with PDAC3 (PDAC3, 24 h) is “significant increase in apoptotic index”; with PDAC3 (PDAC3, 72 h) it was “continued to show a significant rise”; in the assay with PATU‐T (24 h) it was “did not show a significant apoptotic index”; with PATU‐T (72 h), “significant increase in apoptotic index”. Besides, the “Bax/Bcl‐2 ratio PATU‐T” value in the assay with Bax/Bcl‐2 (1 × IC50, 24 h after treatment) came to 4.43; in the assay on Bax/Bcl‐2 (4 × IC50, 24 h after treatment) it was 4.03.
Regarding `Cn1cc(-c2cc3ncnc(N)n3n2)c2cc(Br)ccc21` [Compound 1g, 7‐(5‐Bromo‐1‐methyl‐1H‐indol‐3‐yl)pyrazolo[1,5‐a][1,3,5]triazin‐4‐amine], the apoptotic index entry was “significant increase in apoptotic index” in the assay with PDAC3 (PDAC3, 24 h); “continued to show a significant rise” in the assay on PDAC3 (PDAC3, 72 h); “significantly increased apoptosis” in the assay with PATU‐T (24 h); “not significant compared to control” with PATU‐T (72 h). Further, the “Bax/Bcl‐2 ratio PATU‐T” value in the assay with Bax/Bcl‐2 (1 × IC50, 24 h after treatment) turned out to be 2.82; in the assay with Bax/Bcl‐2 (4 × IC50, 24 h after treatment), 3.74.
